From patent publication US11999746B2, “Compounds” (GlaxoSmithKline Intellectual Property Development Limited, priority 2014, dated 2024)
Structures can show the parent of a compound that is named as a salt.

Assays:
[1] = target: T1, recombinant human Lp-PLA2 (Homo sapiens, UniProt Q13093); assay: (1b) hrThioPAF assay, recombinant human Lp-PLA2; type: biochemical; conditions: Examples 266-412 were tested here, one experiment or average of multiple experiments, read-out: rhLp-PLA2 (pIC50) (converted)
T1 sequence (Q13093 22-441): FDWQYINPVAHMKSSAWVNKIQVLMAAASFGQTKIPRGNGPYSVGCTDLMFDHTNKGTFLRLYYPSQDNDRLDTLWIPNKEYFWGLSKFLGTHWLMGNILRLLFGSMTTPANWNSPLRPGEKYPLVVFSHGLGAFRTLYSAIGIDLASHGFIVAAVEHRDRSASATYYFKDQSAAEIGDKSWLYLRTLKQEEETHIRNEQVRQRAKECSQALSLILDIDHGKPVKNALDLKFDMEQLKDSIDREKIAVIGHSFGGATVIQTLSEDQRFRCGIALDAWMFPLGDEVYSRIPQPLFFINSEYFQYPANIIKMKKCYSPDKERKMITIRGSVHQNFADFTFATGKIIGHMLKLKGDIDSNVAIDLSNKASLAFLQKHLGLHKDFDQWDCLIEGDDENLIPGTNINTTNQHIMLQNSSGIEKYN
How it was run: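 Fluorogenic assay: 20 pM rhLp-PLA2 in 50 mM HEPES pH 7.4, 150 mM NaCl, 1 mM CHAPS with 1:3 serially diluted compounds; substrate mix of 40 μM 2-thio-PAF, 40 μM CPM, 400 μM NEM (pre-addition levels). 20 min at 25 °C in the dark; fluorescence ex 380/em 485 nm, pIC50 by curve fitting.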

Lp-PLA2 in human plasma = target: T2, Lp-PLA2 in human plasma (Homo sapiens, UniProt Q13093); assay: (3b) Lp-PLA2 human plasma alternative Thio-PAF assay; type: biochemical; conditions: (3b) alternative Thio-PAF assay, pooled human plasma; Examples of 266-412 were tested here; read-out: pIC50 in the Lp-PLA2 human plasma assay (converted)
T2 construct: from tissue; host or cells: pooled human plasma
T2 sequence (Q13093 22-441): T1 sequence (Q13093 22-441)
How it was run: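 Pooled human plasma was preincubated with compound for 15 min at RT. Substrate solution (2 mM 2-thio-PAF, 52 μM CPM, 2.5 mM NEM in 50 mM HEPES pH 7.4, 150 mM NaCl, 1 mM CHAPS; pre-addition concentrations) was added, and the reaction was quenched with 5% TFA after 3 min. Fluorescence was read at ex 380/em 485 nm and fitted to give pIC50.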

| SMILES | IC50 [1] [nM] | IC50 (Lp-PLA2 in human plasma) [nM] |
| --- | --- | --- |
| O=C([C@@H]1C[C@H](F)CN1)N1CCN2c3cc(OCc4ccc(F)c(F)c4)nc(=O)n3CC2C1 (stereo partly drawn) [Example E341, 7-((3,4-Difluorobenzyl)oxy)-2-((2S,4S)-4-fluoropyrrolidin-2-carbonyl)-3,4,11,11a-tetrahydro-1H-pyrazino[1′,2′:3,4]imidazo[1,2-c]pyrimidin-9(2H)-one] | ≤ 10000 | ≤ 100 |
| O=C([C@@H]1CC(F)(F)CN1)N1CCN2c3cc(OCc4ccc(F)c(F)c4)nc(=O)n3CC2C1 (stereo partly drawn) [Example E342, 7-((3,4-Difluorobenzyl)oxy)-2-((S)-4,4-difluoropyrrolidin-2-carbonyl)-3,4,11,11a-tetrahydro-1H-pyrazino[1,2′:3,4]imidazo[1,2-c]pyrimidin-9(2H)-one] | ≤ 10000 | ≤ 100 |
| O=C([C@H]1CCCN1)N1CCN2c3cc(OCc4ccc(F)c(F)c4)nc(=O)n3CC2C1 (stereo partly drawn) [Example E343, 7-((3,4-Difluorobenzyl)oxy)-2-((R)-pyrrolidine-2-carbonyl)-3,4,11,11a-tetrahydro-1H-pyrazino[1,2′:3,4]imidazo[1,2-c]pyrimidin-9(2H)-one] | ≤ 10000 | ≤ 100 |
| NC1(C(=O)N2CCN3c4cc(OCc5ccc(F)c(F)c5)nc(=O)n4CC3C2)CCC1 (stereo not shown) [Example E344, 2-(1-Aminocyclobutanecarbonyl)-7-((3,4-difluorobenzyl)oxy)-3,4,11,11a-tetrahydro-1H-pyrazino[1,2′:3,4]imidazo[1,2-c]pyrimidin-9(2H)-one] | ≤ 10000 | ≤ 100 |
| NC1(C(=O)N2CCN3c4cc(OCc5ccc(F)c(F)c5)nc(=O)n4CC3C2)CCOCC1 (stereo not shown) [Example E345, 2-(4-Aminotetrahydro-2H-pyran-4-carbonyl)-7-((3,4-difluorobenzyl)oxy)-3,4,11,11a-tetrahydro-1H-pyrazino[1,2′:3,4]imidazo[1,2-c]pyrimidin-9(2H)-one] | ≤ 10000 | ≤ 100 |
| CN(C)CC(=O)N1CCN2c3cc(OCc4ccc(F)c(F)c4)nc(=O)n3CC2C1 (stereo not shown) [Example E346, 7-((3,4-Difluorobenzyl)oxy)-2-(2-(dimethylamino)acetyl)-3,4,11,11a-tetrahydro-1H-pyrazino[1,2′:3,4]imidazo[1,2-c]pyrimidin-9(2H)-one] | ≤ 10000 | ≤ 100 |
| NC1(C(=O)N2CCN3c4cc(OCc5ccc(F)c(F)c5)nc(=O)n4CC3C2)CCCCC1 (stereo not shown) [Example E347, 2-(1-Aminocyclohexanecarbonyl)-7-((3,4-difluorobenzyl)oxy)-3,4,11,11a-tetrahydro-1H-pyrazino[1,2′:3,4]imidazo[1,2-c]pyrimidin-9(2H)-one] | ≤ 10000 | ≤ 100 |
| N#Cc1cc(COc2cc3n(c(=O)n2)CC2CNC(=O)CN32)ccc1F (stereo not shown) [Example E349, 5-(((3,9-Dioxo-2,3,4,9,11,11a-hexahydro-1H-pyrazino[1′,2′:3,4]imidazo[1,2-c]pyrimidin-7-yl)oxy)methyl)-2-fluorobenzonitrile] | ≤ 10000 | ≤ 100 |
| O=C1CN2c3cc(OCc4cc(F)c(Oc5ccnc(C(F)(F)F)c5)c(F)c4)nc(=O)n3CC2CN1 (stereo not shown) [Example E351, 7-((3,5-Difluoro-4-((2-(trifluoromethyl)pyridin-4-yl)oxy)benzyl)oxy)-11,11a-dihydro-1H-pyrazino[1′,2′:3,4]imidazo[1,2-c]pyrimidine-3,9(2H,4H)-dione] | ≤ 1 | ≤ 100 |
| O=C1CN2c3cc(OCc4cc(F)c(Oc5cncc(C(F)(F)F)c5)c(F)c4)nc(=O)n3CC2CN1 (stereo not shown) [Example E352, 7-((3,5-Difluoro-4-((5-(trifluoromethyl)pyridin-3-yl)oxy)benzyl)oxy)-11,11a-dihydro-1H-pyrazino[1,2′:3,4]imidazo[1,2-c]pyrimidine-3,9(2H,4H)-dione] | 0.501 | ≤ 100 |
| O=C1CN2c3cc(OCc4ccc(F)c(F)c4)nc(=O)n3CC2CN1 (stereo not shown) [Example E356, 7-((3,4-difluorobenzyl)oxy)-11,11a-dihydro-1H-pyrazino[1′,2′:3,4]imidazo[1,2-c]pyrimidine-3,9(2H,4H)-dione] | ≤ 10000 | ≤ 100 |
| CN1CC2Cn3c(cc(OCc4ccc(F)c(C#N)c4)nc3=O)N2CC1=O (stereo not shown) [Example E357, 2-Fluoro-5-(((2-methyl-3,9-dioxo-2,3,4,9,11,11a-hexahydro-1H-pyrazino[1,2′:3,4]imidazo[1,2-c]pyrimidin-7-yl)oxy)methyl)benzonitrile] | ≤ 10000 | ≤ 100 |
| O=C1CN2c3cc(OCc4ccc(F)c(F)c4)nc(=O)n3CC2CN1CC(F)(F)F (stereo not shown) [Example E358, 7-((3,4-Difluorobenzyl)oxy)-2-(2,2,2-trifluoroethyl)-11,11a-dihydro-1Hpyrazino[1′,2′:3,4] imidazo[1,2-c]pyrimidine-3,9(2H,4H)-dione] | ≤ 10000 | ≤ 100 |
| CN1CC2Cn3c(cc(OCc4ccc(F)c(F)c4)nc3=O)N2CC1=O (stereo not shown) [Example E359, 7-((3,4-Difluorobenzyl)oxy)-2-methyl-11,11a-dihydro-1H-pyrazino[1,2′:3,4]imidazo[1,2-c]pyrimidine-3,9(2H,4H)-dione] | ≤ 10000 | ≤ 100 |
| Cc1ccc(Oc2c(F)cc(COc3cc4n(c(=O)n3)CC3CN(C)C(=O)CN43)cc2F)cn1 (stereo not shown) [Example E360, 7-((3,5-difluoro-4-((6-methylpyridin-3-yl)oxy)benzyl)oxy)-2-methyl-11,11a-dihydro-1H-pyrazino[1′,2′:3,4]imidazo[1,2-c]pyrimidine-3,9(2H,4H)-dione, trifluoroacetic acid salt] | ≤ 10000 | ≤ 100 |

Continued, values first:

| IC50 [1] [nM] | IC50 (Lp-PLA2 in human plasma) [nM] | SMILES |
| --- | --- | --- |
| ≤ 100 | ≤ 100 | N#Cc1cc(COc2cc3n(c(=O)n2)CC2CSCCN32)ccc1F (stereo not shown) [Example E364, 2-Fluoro-5-(((9-oxo-1,3,4,9,11,11a-hexahydropyrimido[6′,1′:2,3]imidazo[5,1-c][1,4]thiazin-7-yl)oxy)methyl)benzonitrile] |
| ≤ 10000 | ≤ 100 | N#Cc1cc(COc2cc3n(c(=O)n2)CC2C[S+]([O-])CCN32)ccc1F (stereo not shown) [Example E366, 2-Fluoro-5-(((2-oxido-9-oxo-1,3,4,9,11,11a-hexahydropyrimido[6′,1′:2,3]imidazo[5,1-c][1,4]thiazin-7-yl)oxy)methyl)benzonitrile] |
| ≤ 10000 | ≤ 100 | N#Cc1cc(COc2cc3n(c(=O)n2)CC2CS(=O)(=O)CCN32)ccc1F (stereo not shown) [Example E367, 5-(((2,2-Dioxido-9-oxo-1,3,4,9,11,11a-hexahydropyrimido[6′,1′:2,3]imidazo[5,1-c][1,4]thiazin-7-yl)oxy)methyl)-2-fluorobenzonitrile] |
| ≤ 1 | ≤ 100 | O=c1nc(OCc2cc(F)c(Oc3ccnc(C(F)(F)F)c3)c(F)c2)cc2n1CC1CSCCN21 (stereo not shown) [Example E368, 7-((3,5-Difluoro-4-((2-(trifluoromethyl)pyridin-4-yl)oxy)benzyl)oxy) 3,4,11,11a-tetrahydropyrimido[6′,1′:2,3]imidazo[5,1-c][1,4]thiazin-9(1H)-one] |
| ≤ 10000 | ≤ 100 | O=c1nc(OCc2cc(F)c(Oc3ccnc(C(F)(F)F)c3)c(F)c2)cc2n1CC1C[S+]([O-])CCN21 (stereo not shown) [Example E369, 7-((3,5-Difluoro-4-((2-(trifluoromethyl)pyridin-4-yl)oxy)benzyl)oxy)-3,4,11,11a-tetrahydropyrimido[6′,1′:2,3]imidazo[5,1-c][1,4]thiazin-9(1H)-one 2-oxide] |
| ≤ 10000 | ≤ 100 | O=c1nc(OCc2cc(F)c(Oc3ccnc(C(F)(F)F)c3)c(F)c2)cc2n1CC1CS(=O)(=O)CCN21 (stereo not shown) [Example E370, 7-((3,5-Difluoro-4-((2-(trifluoromethyl)pyridin-4-yl)oxy)benzyl)oxy)-3,4,11,11a-tetrahydropyrimido[6′,1′:2,3]imidazo[5,1-c][1,4]thiazin-9(1H)-one-2,2-dioxide] |
| ≤ 1 | ≤ 100 | O=c1nc(OCc2cc(F)c(Oc3cncc(C(F)(F)F)c3)c(F)c2)cc2n1CC1CSCCN21 (stereo not shown) [Example E371, 7-((3,5-Difluoro-4-((5-(trifluoromethyl)pyridin-3-yl)oxy)benzyl)oxy)-3,4,11,11a-tetrahydropyrimido[6′,1′:2,3]imidazo[5,1-c][1,4]thiazin-9(1H)-one] |
| ≤ 1 | ≤ 100 | O=c1nc(OCc2cc(F)c(Oc3cncc(C(F)(F)F)c3)c(F)c2)cc2n1CC1C[S+]([O-])CCN21 (stereo not shown) [Example E372, 7-((3,5-Difluoro-4-((5-(trifluoromethyl)pyridin-3-yl)oxy)benzyl)oxy)-3,4,11,11a-tetrahydropyrimido[6′,1′:2,3]imidazo[5,1-c][1,4]thiazin-9(1H)-one 2-oxide] |
